Measurements: article PMC12867150, “A fungi-derived cyclic peptide enhances Th9-mediated antitumor immunity by targeting ZAP70 and SREBP1” (The Journal of Clinical Investigation, 2025)

How the values were obtained:
[1] = test system: dendritic cells (DCs); test: Flow cytometry of dendritic cells (S1J-K); format: in vivo, mouse; design: key to Frequencies of DC in Spleen / Frequencies of DC in LN: % of cells; settings: for Frequencies of DC in LN: Supplemental Figure 1K left; for number of DC in LN: Supplemental Figure 1K right; for DC (CD11c) gate number: representative flow plot; for Frequencies of DC in Spleen: Supplemental Figure 1J left; for number of DC in Spleen: Supplemental Figure 1J right
Protocol: C57BL/6 mice were subcutaneously injected with 5 × 10^5 B16-OVA melanoma cells. Five days after tumor implantation, mice received an intravenous infusion of 2 × 10^6 in vitro–differentiated Th9 cells (cultured for 5 days), which were derived from OT-II CD45.1 donor mice, accompanied by 4 × 10^5 OVA peptide–pulsed DCs via the tail vein. To enhance T cell engraftment and facilitate lymphodepletion, a single intraperitoneal injection of cyclophosphamide (200 mg/kg, Sigma, catalog C0768) was administered 1 day prior to T cell transfer. Mice were euthanized at designated time points for the collection and analysis of spleens, tumor-draining lymph nodes, and tumor tissues.
Details regarding staining panels (human and mouse), reagents (including clones and catalog numbers), acquisition settings, compensation/controls, and analysis procedures are provided in Supplemental Methods. […]
Figure S1. EpA enhances immune responses. […]
Representative plots, frequencies, and total numbers of dendritic cells (DCs) in […]
spleens (J) and LNs (K). […]
Statistical analysis was performed using two-way ANOVA with Tukey’s post hoc test (A), one-way ANOVA with Tukey’s post hoc test (B) or two-tailed unpaired Student’s t-test (D and G–M). ns, not significant. *p < 0.05, **p < 0.01, ****p < 0.0001.
(also on this page, place not known: Mouse weight (g) CtrlEpA CtrlEpA CtrlEpA0 I CD45.1+ T cells (%) CtrlEpA CD4+ T cells (%) CtrlEpA CtrlEpA CtrlEpA FSC CD8 CD8 FSC FSC FSC BNumber of CD45.1+ T cells (×103 per mgĎ Number of CD4+ T cells (×104 per mgĎ DC (%)NK cells (%) NK cells (%) DC (%) Number of DC (×103 per mg) Number of NK cells (×105) Number of NK cells (×103 per mg) Number of DC (×105) FSC FSC FSC CD8 CtrlEpA CtrlEpA CtrlEpA CD8+ T cells (%) Number of CD8+ T cells (×104 per mgĎ nsns ns nsns ns 40 IL-6 (pg/ml))

[2] = test system: AKT, mTOR, and NF-κB signaling components; test: Immunoblot of AKT, mTOR and NF-κB components (S7D); format: cell-based, mouse; settings: result in words
Protocol: Detailed lysis conditions, SDS–PAGE and transfer procedures, primary/secondary antibodies (including clones and catalog numbers), molecular weight markers, ECL detection, and ImageJ (NIH) quantification are described in Supplemental Methods.
MH9A4, Biolegend, Cat. No. 507605, PE/Cy7, clone MH9A4, Biolegend, Cat. No. […]
clone Mab11, Biolegend, Cat. No. 502908), Perforin (APC, clone dG9, Biolegend, Cat.
Flow cytometric acquisition was performed using a BD Fortessa or Cytek Aurora cytometer. Data were analyzed with FlowJo software (v10.8.1 or newer). Fluorescence compensation, isotype-matched controls, and fluorescence-minus-one (FMO) controls were applied as appropriate for multicolor panel validation.
Cells were washed twice with PBS and lysed in 1 × lysis buffer (NCM, Cat. No.
WB3100) supplemented with a protease inhibitor cocktail (Solarbio, Cat. No. P1260).
Protein lysates were separated by SDS-polyacrylamide gel electrophoresis (SDS-PA G E ; YEASEN, Cat. No. 20325ES62) and transferred to PVDF membranes for […]
Membranes were probed with the following primary antibodies: ERK1/2 (clone […]
BioLegend, Cat. No. 369502), MEK1/2 (clone L38C12, Cell Signaling Technology, Cat.
No. 4694S), phospho -MEK1/2 (clone 41G9, Cell Signaling Technology, Cat. No. […]
(Proteintech, Cat. No. 10745 -1-AP), Total Akt (Cell Signaling Technolo gy, Cat. No. […]

Q: What does the source list for anteiso-C15 Leu7 surfactin [EpA]?
A: Frequencies of DC in LN ([1]; LN, replicate 1): 2.19; Frequencies of DC in LN ([1]; LN, replicate 2): 1.85; Frequencies of DC in LN ([1]; LN, replicate 3): 1.69; Frequencies of DC in LN ([1]; LN, replicate 4): 1.46; number of DC in LN ([1]; LN, replicate 1): 3234.29; number of DC in LN ([1]; LN, replicate 2): 2390.2; number of DC in LN ([1]; LN, replicate 3): 1334.11; number of DC in LN ([1]; LN, replicate 4): 1093.89; DC (CD11c) gate number ([1]; LN, Figure S1K): 2.19; Frequencies of DC in Spleen ([1]; Spleen, replicate 1): 1.58; Frequencies of DC in Spleen ([1]; Spleen, replicate 2): 1.85; Frequencies of DC in Spleen ([1]; Spleen, replicate 3): 1.61; Frequencies of DC in Spleen ([1]; Spleen, replicate 4): 3.57; number of DC in Spleen ([1]; Spleen, replicate 1): 143005; number of DC in Spleen ([1]; Spleen, replicate 2): 161881; number of DC in Spleen ([1]; Spleen, replicate 3): 145729; number of DC in Spleen ([1]; Spleen, replicate 4): 275281; DC (CD11c) gate number ([1]; Spleen, Figure S1J): 1.85; DC frequencies and total counts ([1]; spleens and lymph nodes, result in words): significantly elevated; AKT and NF-κB component phosphorylation [2]: not of AKT or NF-κB components; total and phosphorylated mTOR levels [2]: remained unchanged
